ChEMBL document CHEMBL3507680, “University of Dundee, Gates Library screen for HepG2 cell viability”

Experiment: Human HepG2 cell viability assay in 384 well format
Assay type: toxicity, cell-based
Design: dose 125 nL, time 70.5 hour; concentration not given beside the values
Conditions: HepG2 cells, read-out: Inhibition

| Structure (SMILES) | cytotoxicity at 70.5 h [%] |
| --- | --- |
| O=C(c1ccoc1)N1CCO[C@]2(CCC[C@@H]2COCc2ccncc2)C1 | 1.38 |
| c1ccc(CN2CCN3C[C@H](Oc4cccnc4)C[C@H]3C2)nc1 | -3.66 |
| COC[C@H]1CNC(=O)[C@@H]2CCN(Cc3cccc(C)n3)CC[C@H]12 | 0.496 |
| O=C(c1ccno1)N1CCO[C@]2(CCC[C@@H]2COCc2ccncc2)C1 | -2.51 |
| Cc1ccsc1C(=O)NCC1COCc2c(C)nnn2C1 (stereo not drawn) | -1.54 |
| Cc1nnn2c1COCC(CNC(=O)c1cnoc1C)C2 (stereo not drawn) | 0.126 |
| CCN1C(=O)C2(CCOCC2)c2cc(NC(=O)c3csnn3)ccc21 | 8.75 |
| Cc1cnc(C(=O)N2CCc3ncnc(C)c3CC2)cn1 | -3.63 |
| O=C(Cc1ccsc1)N1CCn2cc(CN3CCCC3)nc2C1 | -5.43 |
| O=C(CC1CC1)NCc1cc(=O)n2c(n1)CN(Cc1ccoc1)CCC2 | -5.33 |
| Cc1nocc1C(=O)N1CCc2c(CN(C)C(C)C)n[nH]c2C1 | -8.09 |
| Cc1ccc(CC(=O)N2Cc3nccn3CC(Cn3cccn3)C2)cc1 (stereo not drawn) | -0.504 |
| Cc1noc([C@@H]2C[C@H]3OCC[C@H]3N(S(C)(=O)=O)C2)n1 | -8.57 |
| COCCNC(=O)C[C@@H]1COC[C@H]2CN(C(=O)c3cnccn3)C[C@@H]12 | -6.71 |
| COCCN1CCC2(CCCN(C(=O)c3cnoc3C)C2)C1=O (stereo not drawn) | -0.05 |
| CN1C(=O)C[C@@H]2[C@@H]1CCN2C(=O)c1ccc[nH]1 | -2.89 |
| Cn1cc(CN2C[C@@H]3COC[C@]3(COc3ccc(C#N)cn3)C2)cn1 | -10.6 |
| Cc1ncsc1CN1C[C@@H]2COC[C@]2(COc2ccc(C#N)cn2)C1 | -4.4 |
| COCCC(=O)N1CCC2(CN(Cc3ccc(OC)c(F)c3)C2)C1 | -9.17 |
| COC[C@@]12CCO[C@@H]1CCN(C(=O)Cc1ccccc1F)C2 | -10.5 |
| COc1nn(C)c2c1CCCN(C(=O)c1ccccc1)C2 | -5.54 |
| CC(=O)NCC(=O)N1CCc2c(CNc3ncccn3)cncc2C1 | -2.19 |
| CS(=O)(=O)NC[C@@H]1OC[C@H]2CN(C(=O)c3ccccn3)CC[C@H]21 | -3.81 |
| O=C(CC1CC1)N[C@@H]1CN(Cc2ccco2)C[C@@H]2CCCO[C@@H]21 | -2.26 |
| CNC(=O)[C@@H]1CCO[C@@H]2CCN(C3CCOCC3)C[C@@H]21 | -0.345 |

| Structure (SMILES) | cytotoxicity at 70.5 h [%] |
| --- | --- |
| Cc1cc(CN2CC[C@H]3OCC[C@@]3(C(=O)NCc3ccco3)C2)no1 | 0.284 |
| O=C(c1ccc[nH]1)N1CCO[C@]2(CCC[C@@H]2COc2cccnc2)C1 | -2.32 |
| CCS(=O)(=O)N1CCC2(CC1)CC(COC)N(c1ncccn1)C2 (stereo not drawn) | 2.68 |
| O=C(c1ccoc1)N1CCO[C@]2(CCC[C@H]2COCc2cccnc2)C1 | -0.748 |
| O=S(=O)(c1cccs1)N1CCCn2cnc(CO)c2C1 | -1.4 |
| Cc1ccc(CN2C[C@@H]3CCCO[C@@H]3[C@H](NC(=O)CC3CC3)C2)s1 | -1.25 |
| COCC(=O)N1CCC2(CC1)CC(COC)N(c1ncccn1)C2 (stereo not drawn) | -5.32 |
| Cc1nc(CN2C[C@@H]3CCCO[C@@H]3[C@H](NC(=O)CC3CC3)C2)cs1 | -0.515 |
| O=C(NC1CCC1)[C@@H]1CCO[C@@H]2CCN(C3CCCC3)C[C@@H]21 | 1.69 |
| O=C(CC1CC1)N[C@@H]1CN(Cc2ccc(F)cc2)C[C@@H]2CCCO[C@@H]21 | -3.12 |
| CN1CCN(C(=O)Cc2ccsc2)Cc2cccnc21 | -1.77 |
| Cn1cc(N2C[C@@H]3CN(Cc4ccoc4)C[C@@H]3C2=O)cn1 | -2.46 |
| COCC1CN(Cc2ccc(C)o2)Cc2nnn(C)c21 (stereo not drawn) | -0.755 |
| Cc1occc1C(=O)N1CCC2(CCCN(Cc3nccs3)C2)C1 (stereo not drawn) | 1.62 |
| Cn1cccc1CN1CCC2(CC1)CN(c1ncccn1)CCO2 | 1.85 |
| CN(C)C(=O)CO[C@H]1CN(Cc2ccccc2)[C@@H]2CCCO[C@H]12 | 34.3 |
| COc1ccc(CN2C[C@H](OCC3CCOCC3)[C@H]3COC[C@H]32)cc1 | -9.69 |
| CCc1ccc(CN2C[C@@H]3OCCN(c4ccnc(N(C)C)n4)[C@@H]3C2)o1 | 5.59 |
| CS(=O)(=O)N1CCOCC2(CN(Cc3ccsc3)CCO2)C1 (stereo not drawn) | 0.00349 |
| O=C(NCc1cc(=O)n2c(n1)CN(CC1CCOC1)CCC2)C1CC1 (stereo not drawn) | -4.46 |
| Cn1nnc2c1C(COCc1ccccn1)CN(C(=O)c1cccs1)C2 (stereo not drawn) | 5.64 |
| Cc1cccc(CN2CCc3ncnc(C)c3CC2)n1 | -2.78 |
| COCc1nn(C(C)C)c2c1CCN(Cc1cccs1)C2 | -6.03 |
| c1cncc(-c2ccc3c(c2)C2(CC3)CCN(c3nncs3)CC2)c1 | -13.1 |
| c1nc2c(c(C3CC3)n1)CCN(Cc1ccc3c(c1)OCO3)CC2 | -4.69 |

| Structure (SMILES) | cytotoxicity at 70.5 h [%] |
| --- | --- |
| CN(Cc1ccco1)[C@@H]1CN(C(=O)c2ccnnc2)C[C@@H]2CCCO[C@@H]21 | -7.61 |
| O=C(C1=CCCC1)N1CCC[C@]2(C[C@@H](Oc3ncccc3F)CO2)C1 | -6.43 |
| CN(Cc1ccco1)[C@@H]1CN(C(=O)c2ccnnc2)[C@@H]2CCCO[C@H]12 | 1.48 |
| CCO[C@@H]1CO[C@@]2(CCCN(Cc3scnc3C)C2)C1 | -11.1 |
| CCO[C@H]1CO[C@@]2(CCCN(Cc3nc(C)cs3)C2)C1 | -10.1 |
| CCCS(=O)(=O)N1CCC2(CN(c3cnn(C)c3)C(=O)CN2C)C1 (stereo not drawn) | 0.667 |
| C1CC(CN2CCO[C@H]3[C@H](OCC4CC4)CC[C@@H]32)CCO1 | -2.31 |
| O=C1[C@H]2CN(c3ncccn3)C[C@H]2CN1Cc1ccncc1 | 3.36 |
| Cn1cc(C(=O)NCc2cn3c(n2)CN(CC2CCOCC2)CC3)cn1 | -1.1 |
| O=C(NCc1ccncc1)c1nc2c(o1)CN(C(=O)c1cccnc1)C2 | -0.144 |
| Cn1ccnc1CN1CCN2C[C@H](OCc3ccccc3)C[C@H]2C1 | -1.75 |
| Cn1cc(CN2CCc3c(COCC4CC4)cncc3C2)cn1 | -1.91 |
| Fc1ccc(CN2CCC3(CC2)CN(c2ccccn2)CCO3)cc1 | 2.69 |
| COCCNC(=O)[C@H]1CN(Cc2nccs2)C[C@H]2OCC[C@@H]12 | -2.35 |
| COCCNC(=O)[C@H]1CN(Cc2scnc2C)C[C@H]2OCC[C@@H]12 | -3.43 |
| CCN(CC)CC1CN(CCc2ccccc2)Cc2nccn2C1 (stereo not drawn) | -4.11 |
| Cc1nnc(N2C[C@@H](OCCCn3cccn3)[C@H]3OCCC[C@H]32)s1 | -9.45 |
| Cc1ncnc2c1CCN(Cc1ccccn1)CC2 | -4.71 |
| Cc1nnc(N2CCCC3(CN(Cc4ccncc4)CCO3)C2)o1 (stereo not drawn) | -2.14 |
| CN1CC(=O)N(c2cnn(C)c2)CC12CCN(Cc1ccccc1)C2 (stereo not drawn) | 0.248 |
| Cc1nc(CN2CCOCC3(CCN(c4ncccn4)C3)C2)cs1 (stereo not drawn) | -3.76 |
| COCC1CC2(CCN(Cc3cccnc3)CC2)CN1c1ncccn1 (stereo not drawn) | -0.169 |
| CO[C@H]1CCN(Cc2cccc(C)n2)[C@@H]2CN(Cc3cccnc3)C[C@H]12 | 1.87 |
